Source: patent US9896441B2 (Lycera Corporation, priority 2014, dated 2018)

Tests used:
[1] = biological target: T1, RORγ-LBD (Homo sapiens, UniProt P51449); assay: RORγ-Ligand Binding Domain (LBD) TR-FRET Assay; format: biochemical; conditions: RORγ-LBD TR-FRET
T1 construct: made in house; host or cells: SF9 cells (baculovirus); used as diluted lysate
T1 sequence (P51449 269-508 limits assumed): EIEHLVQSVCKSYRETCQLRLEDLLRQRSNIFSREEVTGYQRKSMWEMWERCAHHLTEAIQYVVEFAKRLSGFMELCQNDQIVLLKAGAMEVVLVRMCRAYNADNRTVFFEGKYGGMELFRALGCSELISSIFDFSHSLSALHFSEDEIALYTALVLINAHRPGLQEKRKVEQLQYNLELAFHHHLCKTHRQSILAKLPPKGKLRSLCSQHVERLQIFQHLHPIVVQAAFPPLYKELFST
In short: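 TR-FRET read-out using a biotin-tagged SRC1 coactivator LXXLL peptide (200 nM final), with the antagonist ursolic acid present at 2 μM final. Receptor is His-tagged LBD expressed in SF9 cells, ~3 nM final in pH 7.0 Tris/KCl/EDTA/DTT/BSA buffer; compounds in 1% DMSO final.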

[2] = biological target: T2, Gal4-RORγ-LBD (Homo sapiens, UniProt P51449); assay: Gal4-RORγ Luciferase Reporter Assay in HEK-293T Cells; format: cell-based; conditions: HEK-293 cells, luciferase reporter, with ursolic acid
T2 construct: expressed in transfected cells
T2 sequence (P51449 269-508 limits assumed): T1 sequence (P51449 269-508 limits assumed)
In short: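 Max Response was taken as the upper plateau of a 4-parameter logistic fit of luciferase signal, normalized to 100 for wells without ursolic acid or compound. Transiently Gal4-RORγ-LBD/Gal4-luc transfected HEK-293 cells carrying […] ursolic acid were incubated with test compounds (0.2% DMSO) overnight at 37 °C and read with One-Glo.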

| Structure (SMILES) | EC50 [1] | EC50 [2] |
| --- | --- | --- |
| O=C(O)CC[C@H]1CN(S(=O)(=O)c2cccc(C(F)(F)F)c2)c2cc(/C=C/c3ccncn3)ccc2O1 [Example 89CC, (S,E)-3-(6-(2-(pyrimidin-4-yl)vinyl)-4-((3-(trifluoromethyl)-phenyl)sulfonyl)-3,4-dihydro-2H-benzo[b][1,4]oxazin-2-yl)propanoic acid] | > 10 µM | > 10 µM |
| Cc1cnc(/C=C/c2ccc3c(c2)N(S(=O)(=O)c2cccc(C(F)(F)F)c2)C[C@H](CCC(=O)O)O3)c(F)c1 [Example 89CF, (S,E)-3-(6-(2-(3-fluoro-5-methylpyridin-2-yl)vinyl)-4-((3-(trifluoromethyl)phenyl)sulfonyl)-3,4-dihydro-2H-benzo[b][1,4]-oxazin-2-yl)propanoic acid] | 0.5 to 5 µM | > 10 µM |
| Cn1nccc1/C=C/c1ccc2c(c1)N(S(=O)(=O)c1cccc(C(F)(F)F)c1)C[C@H](CCC(=O)O)O2 [Example 89CI, (S,E)-3-(6-(2-(1-methyl-1H-pyrazol-5-yl)vinyl)-4-((3-(trifluoromethyl)phenyl)sulfonyl)-3,4-dihydro-2H-benzo[b][1,4]-oxazin-2-yl)propanoic acid] | > 10 µM | > 10 µM |
| Cn1ncnc1/C=C/c1ccc2c(c1)N(S(=O)(=O)c1cccc(C(F)(F)F)c1)C[C@H](CCC(=O)O)O2 [Example 89CJ, (S,E)-3-(6-(2-(1-methyl-1H-1,2,4-triazol-5-yl)vinyl)-4-((3-(trifluoromethyl)phenyl)sulfonyl)-3,4-dihydro-2H-benzo[b][1,4]-oxazin-2-yl)propanoic acid] | > 10 µM | > 10 µM |
| CCn1cc(S(=O)(=O)N2C[C@H](CCC(=O)O)Oc3ccc(/C=C/c4ncccc4Cl)cc32)c(Cl)n1 [Example 89CQ, (S,E)-3-(4-((3-chloro-1-ethyl-1H-pyrazol-4-yl)sulfonyl)-6-(2-(3-chloropyridin-2-yl)vinyl)-3,4-dihydro-2H-benzo[b][1,4]oxazin-2-yl)propanoic acid] | < 0.5 µM | 0.5 to 5 µM |
| CCOc1nn(CC)cc1S(=O)(=O)N1C[C@H](CCC(=O)O)Oc2ccc(/C=C/c3c(Cl)cccc3Cl)cc21 [Example 89CR, (S,E)-3-(6-(2,6-dichlorostyryl)-4-((3-ethoxy-1-ethyl-1H-pyrazol-4-yl)sulfonyl)-3,4-dihydro-2H-benzo[b][1,4]oxazin-2-yl)-propanoic acid] | < 0.5 µM | < 0.5 µM |
| COC(=O)CC[C@H]1CN(S(=O)(=O)c2cccc(OC(F)F)c2)c2cc(/C=C/c3c(Cl)cccc3Cl)ccc2O1 [Example 89CS, methyl (S,E)-3-(6-(2,6-dichlorostyryl)-4-((3-(difluoromethoxy)phenyl)sulfonyl)-3,4-dihydro-2H-benzo[b][1,4]-oxazin-2-yl)propanoate] | < 0.5 µM | < 0.5 µM |
| O=C(O)CC[C@H]1CN(S(=O)(=O)c2cccc(OC(F)F)c2)c2cc(/C=C/c3c(Cl)cccc3Cl)ccc2O1 [Example 89CT, (S,E)-3-(6-(2,6-dichlorostyryl)-4-((3-(difluoromethoxy)phenyl)-sulfonyl)-3,4-dihydro-2H-benzo[b][1,4]oxazin-2-yl)propanoic acid] | < 0.5 µM | < 0.5 µM |
| COC(=O)CC[C@H]1CN(S(=O)(=O)c2ccc(F)c(OC(F)F)c2)c2cc(/C=C/c3c(F)cccc3Cl)ccc2O1 [Example 89CU, methyl (S,E)-3-(6-(2-chloro-6-fluorostyryl)-4-((3-(difluoromethoxy)-4-fluorophenyl)-sulfonyl)-3,4-dihydro-2H-benzo[b][1,4]oxazin-2-yl)propanoate] | < 0.5 µM | 0.5 to 5 µM |
| O=C(O)CC[C@H]1CN(S(=O)(=O)c2ccc(F)c(OC(F)F)c2)c2cc(/C=C/c3c(F)cccc3Cl)ccc2O1 [Example 89CV, (S,E)-3-(6-(2-chloro-6-fluorostyryl)-4-((3-(difluoromethoxy)-4-fluorophenyl)-sulfonyl)-3,4-dihydro-2H-benzo[b][1,4]oxazin-2-yl)propanoic acid] | < 0.5 µM | < 0.5 µM |
| CCOc1ncc(Cl)cc1S(=O)(=O)N1C[C@H](CCC(=O)OC)Oc2ccc(/C=C/c3c(F)cccc3Cl)cc21 [Example 89CW, methyl (S,E)-3-(4-((5-chloro-2-ethoxypyridin-3-yl)sulfonyl)-6-(2-chloro-6-fluorostyryl)-3,4-dihydro-2H-benzo[b][1,4]oxazin-2-yl)propanoate] | < 0.5 µM | 0.5 to 5 µM |
| CCOc1ncc(Cl)cc1S(=O)(=O)N1C[C@H](CCC(=O)O)Oc2ccc(/C=C/c3c(F)cccc3Cl)cc21 [Example 89CX, (S,E)-3-(4-((5-chloro-2-ethoxypyridin-3-yl)sulfonyl)-6-(2-chloro-6-fluorostyryl)-3,4-dihydro-2H-benzo[b][1,4]oxazin-2-yl)propanoic acid] | < 0.5 µM | 0.5 to 5 µM |
| CCOc1ncc(Cl)cc1S(=O)(=O)N1C[C@H](CCC(=O)OC)Oc2ccc(/C=C/c3c(Cl)cccc3C(F)(F)F)cc21 [Example 89CY, methyl (S,E)-3-(4-((5-chloro-2-ethoxypyridin-3-yl)sulfonyl)-6-(2-chloro-6-(trifluoromethyl)-styryl)-3,4-dihydro-2H-benzo-[b][1,4]oxazin-2-yl)propanoate] | < 0.5 µM | 0.5 to 5 µM |
| CCOc1ncc(Cl)cc1S(=O)(=O)N1C[C@H](CCC(=O)O)Oc2ccc(/C=C/c3c(Cl)cccc3C(F)(F)F)cc21 [Example 89CZ, (S,E)-3-(4-((5-chloro-2-ethoxypyridin-3-yl)sulfonyl)-6-(2-chloro-6-(trifluoromethyl)-styryl)-3,4-dihydro-2H-benzo-[b][1,4]oxazin-2-yl)propanoic acid] | < 0.5 µM | 0.5 to 5 µM |

Other lines, results leading:

| EC50 [1] | EC50 [2] | Structure (SMILES) |
| --- | --- | --- |
| < 0.5 µM | > 10 µM | Cc1ccc(F)c(/C=C/c2ccc3c(c2)N(S(=O)(=O)c2cccc(C(F)(F)F)c2)C[C@H](CCC(=O)O)O3)c1 [Example 89CA, (S,E)-3-(6-(2-fluoro-5-methylstyryl)-4-((3-(trifluoromethyl)phenyl)sulfonyl)-3,4-dihydro-2H-benzo[b][1,4]oxazin-2-yl)propanoic acid] |
| < 0.5 µM | 0.5 to 5 µM | O=C(O)CC[C@H]1CN(S(=O)(=O)c2cccc(C(F)(F)F)c2)c2cc(/C=C/c3cccnc3Cl)ccc2O1 [Example 89CD, (S,E)-3-(6-(2-(2-chloropyridin-3-yl)vinyl)-4-((3-(trifluoromethyl)-phenyl)sulfonyl)-3,4-dihydro-2H-benzo[b][1,4]oxazin-2-yl)-propanoic acid] |
| < 0.5 µM | 0.5 to 5 µM | O=C(O)CC[C@H]1CN(S(=O)(=O)c2cccc(C(F)(F)F)c2)c2cc(/C=C/c3ncccc3F)ccc2O1 [Example 89CE, (S,E)-3-(6-(2-(3-fluoropyridin-2-yl)vinyl)-4-((3-(trifluoromethyl)phenyl)sulfonyl)-3,4-dihydro-2H-benzo[b][1,4]oxazin-2-yl)propanoic acid] |
| < 0.5 µM | 5 to 10 µM | Cc1ccc(F)c(/C=C/c2ccc3c(c2)N(S(=O)(=O)c2cccc(C(F)(F)F)c2)C[C@H](CCC(=O)O)O3)n1 [Example 89CG, (S,E)-3-(6-(2-(3-fluoro-6-methylpyridin-2-yl)vinyl)-4-((3-(trifluoromethyl)phenyl)sulfonyl)-3,4-dihydro-2H-benzo[b][1,4]-oxazin-2-yl)propanoic acid] |
| < 0.5 µM | > 10 µM | Cc1ccnc(/C=C/c2ccc3c(c2)N(S(=O)(=O)c2cccc(C(F)(F)F)c2)C[C@H](CCC(=O)O)O3)c1F [Example 89CH, (S,E)-3-(6-(2-(3-fluoro-4-methylpyridin-2-yl)vinyl)-4-((3-(trifluoromethyl)phenyl)sulfonyl)-3,4-dihydro-2H-benzo[b][1,4]-oxazin-2-yl)propanoic acid] |
| < 0.5 µM | 0.5 to 5 µM | O=C(O)CC[C@H]1CN(S(=O)(=O)c2cccc(C(F)(F)F)c2)c2cc(/C=C/c3cccnc3C(F)(F)F)ccc2O1 [Example 89CK, (S,E)-3-(4-((3-(trifluoromethyl)-phenyl)sulfonyl)-6-(2-(2-(trifluoromethyl)pyridin-3-yl)vinyl)-3,4-dihydro-2H-benzo[b][1,4]oxazin-2-yl)propanoic acid] |
| < 0.5 µM | 0.5 to 5 µM | O=C(O)CC[C@H]1CN(S(=O)(=O)c2cccc(C(F)(F)F)c2)c2cc(/C=C/c3c(Cl)cc(F)cc3Cl)ccc2O1 [Example 89CM, (S,E)-3-(6-(2,6-dichloro-4-fluorostyryl)-4-((3-(trifluoromethyl)phenyl)sulfonyl)-3,4-dihydro-2H-benzo[b][1,4]-oxazin-2-yl)propanoic acid] |
| < 0.5 µM | 0.5 to 5 µM | O=C(O)CC[C@H]1CN(S(=O)(=O)c2cccc(C(F)(F)F)c2)c2cc(/C=C/c3cccc(Cl)c3C(F)(F)F)ccc2O1 [Example 89CO, (S,E)-3-(6-(3-chloro-2-(trifluoromethyl)styryl)-4-((3-(trifluoromethyl)phenyl)sulfonyl)-3,4-dihydro-2H-benzo[b][1,4]oxazin-2-yl)propanoic acid] |
| < 0.5 µM | < 0.5 µM | O=C(O)CC[C@H]1CN(S(=O)(=O)c2cccc(C(F)(F)F)c2)c2cc(/C=C/c3cc(F)ccc3C(F)(F)F)ccc2O1 [Example 89CP, (S,E)-3-(6-(5-fluoro-2-(trifluoromethyl)styryl)-4-((3-(trifluoromethyl)phenyl)sulfonyl)-3,4-dihydro-2H-benzo[b][1,4]-oxazin-2-yl)propanoic acid] |
